# Data taken from patent US9624182B2, “Compounds as lysophosphatidic acid receptor antagonists” (Amira Pharmaceuticals, Inc., priority 2009, dated 2017).
# Biological target: T1, human LPA1 (Homo sapiens, UniProt Q92633)
# T1 construct: the full-length cDNA for human LPA1 was obtained by PCR of the reverse transcription reaction; expressed in transfected cells
# Assay: LPA1 calcium flux assay
# Assay type: cell-based
# Details: CHO cells expressing human LPA1, stimulated with 10 nM LPA; read-out: HLPA1 Ca Flux IC50
# Summary of the method: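 CHO cells stably expressing cloned human LPA1, serum-starved overnight, loaded with Calcium 4 dye 1 h at 37 °C in HBSS/20 mM Hepes with 0.3% fatty-acid-free HSA. Compounds preincubated 30 min at room temperature, then cells stimulated with 10 nM LPA; intracellular Ca2+ read by fluorescence. IC50 from titration curves.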
# T1 sequence (Q92633 whole entry): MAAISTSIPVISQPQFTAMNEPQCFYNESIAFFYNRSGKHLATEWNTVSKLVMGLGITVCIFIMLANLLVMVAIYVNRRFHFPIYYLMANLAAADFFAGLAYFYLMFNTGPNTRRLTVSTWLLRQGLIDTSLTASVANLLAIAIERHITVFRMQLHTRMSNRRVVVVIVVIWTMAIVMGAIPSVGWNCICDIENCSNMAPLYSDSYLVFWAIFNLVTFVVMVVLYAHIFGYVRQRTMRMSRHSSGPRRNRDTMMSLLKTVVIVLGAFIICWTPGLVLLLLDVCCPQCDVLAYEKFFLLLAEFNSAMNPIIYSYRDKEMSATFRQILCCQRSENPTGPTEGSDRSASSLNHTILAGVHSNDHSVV
row,IC50 [nM],SMILES
1,1000 to 50000,"Cc1noc(-c2ccc(-c3ccc(C4(C(=O)O)CC4)cc3)cc2)c1COCc1ccccc1Cl [Compound 1-46, 1-{4′-[4-(2-Chloro-benzyloxymethyl)-3-methyl-isoxazol-5-yl]-biphenyl-4-yl}-cyclopropanecarboxylic acid]"
2,< 300,"Cc1noc(-c2ccc(-c3ccc(C4(CC(=O)NS(C)(=O)=O)CC4)cc3)cc2)c1C(O)CCCc1ccccc1 (stereo not drawn) [Compound 2-16, N-[2-(1-{4′-[4-(1-Hydroxy-4-phenyl-butyl)-3-methyl-isoxazol-5-yl]-biphenyl-4-yl}-cyclopropyl)-acetyl]-methanesulfonamide]"
3,< 300,"Cc1noc(-c2ccc(-c3ccc(C4(C(=O)O)CC4)cc3)cc2)c1C(CO)NCc1ccccc1 (stereo not drawn) [Compound 1-189, 1-{4′-[4-(1-Benzylamino-2-hydroxy-ethyl)-3-methyl-isoxazol-5-yl]-biphenyl-4-yl}-cyclopropanecarboxylic acid]"
4,< 300,"CC(C)=CCCC(C)Nc1c(C)noc1-c1ccc(-c2ccc(C3(C(=O)O)CC3)cc2)cc1 (stereo not drawn) [Compound 1-205, 1-{4′-[4-(1,5-Dimethyl-hex-4-enylamino)-3-methyl-isoxazol-5-yl]-biphenyl-4-yl}-cyclopropanecarboxylic acid]"
5,< 300,"Cc1noc(-c2ccc(-c3ccc(C4(C(=O)NS(C)(=O)=O)CC4)cc3)cc2)c1[C@@H](COCc1ccccc1)OC(=O)NS(C)(=O)=O [Compound 2-4, N-Sulfonylmethyl carbamic acid (S)-2-benzyloxy-1-{5-[4′-(1-methanesulfonylaminocarbonyl-cyclopropyl)-biphenyl-4-yl]-3-methyl-isoxazol-4-yl}-ethyl ester]"
6,< 300,"Cc1noc(-c2ccc(-c3ccc(C4(CC(=O)O)CC4)cc3)cc2)c1C(O)CCCc1ccccc1 (single isomer, unassigned) [Compound 1-177, (1-{4′-[4-(1-Hydroxy-4-phenyl-butyl)-3-methyl-isoxazol-5-yl]-biphenyl-4-yl}-cyclopropyl)-acetic acid]"
7,300 to 1000,"Cc1noc(-c2ccc(-c3ccc([C@@H]4C[C@H]4C(=O)O)cc3)cc2)c1CSCCc1ccccc1 (relative stereo) [Compound 1-130, (trans)-2-[4′-(3-Methyl-4-phenethylsulfanylmethyl-isoxazol-5-yl)-biphenyl-4-yl]-cyclopropanecarboxylic acid]"
8,> 50000,"Cc1noc(-c2ccc(-c3ccc(C4(C(=O)O)CC4)cc3)cc2)c1CC(=O)N1Cc2ccccc2C1 [Compound 1-66, 1-(4′-{4-[2-(1,3-Dihydro-isoindol-2-yl)-2-oxo-ethyl]-3-methyl-isoxazol-5-yl}-biphenyl-4-yl)-cyclopropanecarboxylic acid]"
9,< 300,"Cc1noc(-c2ccc(-c3ccc(C4(C(=O)O)CC4)cc3)cc2)c1COC(=O)NC1CCCC1 [Compound 1-23, 1-[4′-(4-Cyclopentylcarbamoyloxymethyl-3-methyl-isoxazol-5-yl)-biphenyl-4-yl]-cyclopropanecarboxylic acid]"
10,1000 to 50000,"Cc1noc(-c2ccc(-c3ccc(C4(C(=O)O)CC4)cc3)cc2)c1CNCc1ccccc1 [Compound 1-29, 1-{4′-[4-(Benzylamino-methyl)-3-methyl-isoxazol-5-yl]-biphenyl-4-yl}-cyclopropanecarboxylic acid]"
11,1000 to 50000,"Cc1noc(-c2ccc(-c3ccc(C4(C(=O)O)CC4)cc3)cc2)c1COC(C)c1ccccc1 (stereo not drawn) [Compound 1-47, 1-{4′-[3-Methyl-4-(1-phenyl-ethoxymethyl)-isoxazol-5-yl]-biphenyl-4-yl}-cyclopropanecarboxylic acid]"
12,300 to 1000,"Cc1noc(-c2ccc(-c3ccc(C4(CC(=O)O)CC4)cc3)cc2)c1NC(CCc1ccccc1)c1ccccc1 (stereo not drawn) [Compound 1-213, (1-{4′-[4-(1,3-Diphenyl-propylamino)-3-methyl-isoxazol-5-yl]-biphenyl-4-yl}-cyclopropyl)-acetic acid]"
